PMC2362229 (British Journal of Cancer, 1999)

Experiments:
Mdr1b P-gp [1] = target: T1, Mdr1b P-gp (Rattus norvegicus, UniProt P43245); assay: ATP-dependent [3H]daunorubicin transport into rat hepatocyte canalicular membrane vesicles
[2] = target: T2, bile salt export pump (BSEP) (Rattus norvegicus, UniProt O70127); assay: ATP-dependent [3H]taurocholate transport in rat hepatocyte canalicular membrane vesicles; assay type: biochemical; conditions: TC 5 M; 0.5% fetal calf serum; read-out: inhibition by 50% of ATP-dependent BSEP, [3H]taurocholate as substrate (IC50)
T2 construct: Membrane fractions enriched in the hepatocyte canalicular membrane domain were prepared and characterized from rat and human liver; from tissue; host or cells: liver of male Wistar rats: canalicular membrane vesicles (A8) or the liver in vivo (A13)
T2 sequence (O70127 1-1321): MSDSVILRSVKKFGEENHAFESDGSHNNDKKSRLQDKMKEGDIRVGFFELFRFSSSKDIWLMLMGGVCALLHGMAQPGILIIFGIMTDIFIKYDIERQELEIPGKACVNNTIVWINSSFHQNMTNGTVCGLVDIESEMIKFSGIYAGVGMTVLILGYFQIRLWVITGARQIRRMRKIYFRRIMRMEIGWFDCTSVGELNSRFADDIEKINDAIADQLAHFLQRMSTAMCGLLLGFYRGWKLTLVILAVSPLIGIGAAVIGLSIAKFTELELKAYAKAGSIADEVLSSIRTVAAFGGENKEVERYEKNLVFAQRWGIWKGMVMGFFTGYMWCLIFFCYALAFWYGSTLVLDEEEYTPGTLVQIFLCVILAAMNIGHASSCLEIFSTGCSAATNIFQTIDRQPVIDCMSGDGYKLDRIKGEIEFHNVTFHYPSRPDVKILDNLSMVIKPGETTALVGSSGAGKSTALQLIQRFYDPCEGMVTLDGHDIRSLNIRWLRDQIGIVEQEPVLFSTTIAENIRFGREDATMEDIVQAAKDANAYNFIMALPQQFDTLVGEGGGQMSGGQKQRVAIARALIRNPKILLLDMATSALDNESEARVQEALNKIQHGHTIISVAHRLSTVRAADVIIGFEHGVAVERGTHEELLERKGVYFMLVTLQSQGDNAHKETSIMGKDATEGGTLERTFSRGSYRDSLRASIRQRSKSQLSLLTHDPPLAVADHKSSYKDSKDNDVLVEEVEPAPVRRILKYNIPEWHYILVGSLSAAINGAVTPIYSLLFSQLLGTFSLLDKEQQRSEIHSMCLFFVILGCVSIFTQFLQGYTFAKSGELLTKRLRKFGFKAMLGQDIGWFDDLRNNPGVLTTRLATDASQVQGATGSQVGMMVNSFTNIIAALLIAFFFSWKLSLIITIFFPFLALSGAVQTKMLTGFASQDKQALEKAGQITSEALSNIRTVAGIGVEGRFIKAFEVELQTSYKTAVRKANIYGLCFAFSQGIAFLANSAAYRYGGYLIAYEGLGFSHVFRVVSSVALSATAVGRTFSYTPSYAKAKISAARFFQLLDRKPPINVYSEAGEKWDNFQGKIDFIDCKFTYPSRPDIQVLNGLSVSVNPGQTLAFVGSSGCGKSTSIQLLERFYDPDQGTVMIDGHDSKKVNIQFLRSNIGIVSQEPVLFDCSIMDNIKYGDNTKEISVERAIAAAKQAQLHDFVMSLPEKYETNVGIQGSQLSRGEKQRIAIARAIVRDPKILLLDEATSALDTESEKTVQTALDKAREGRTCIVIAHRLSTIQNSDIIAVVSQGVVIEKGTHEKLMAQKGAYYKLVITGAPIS

Mdr1 P-gp [3] = target: T3, Mdr1 P-gp (Rattus norvegicus, UniProt P43245); assay: ATP-dependent N-pentyl-[3H]quinidinium transport in rat hepatocyte canalicular membrane vesicles; assay type: biochemical
T3 construct: Membrane fractions enriched in the hepatocyte canalicular membrane domain were prepared and characterized from rat and human liver; from tissue; host or cells: rat liver canalicular membrane vesicles
T3 sequence (P43245 whole entry, the tested form may be a part): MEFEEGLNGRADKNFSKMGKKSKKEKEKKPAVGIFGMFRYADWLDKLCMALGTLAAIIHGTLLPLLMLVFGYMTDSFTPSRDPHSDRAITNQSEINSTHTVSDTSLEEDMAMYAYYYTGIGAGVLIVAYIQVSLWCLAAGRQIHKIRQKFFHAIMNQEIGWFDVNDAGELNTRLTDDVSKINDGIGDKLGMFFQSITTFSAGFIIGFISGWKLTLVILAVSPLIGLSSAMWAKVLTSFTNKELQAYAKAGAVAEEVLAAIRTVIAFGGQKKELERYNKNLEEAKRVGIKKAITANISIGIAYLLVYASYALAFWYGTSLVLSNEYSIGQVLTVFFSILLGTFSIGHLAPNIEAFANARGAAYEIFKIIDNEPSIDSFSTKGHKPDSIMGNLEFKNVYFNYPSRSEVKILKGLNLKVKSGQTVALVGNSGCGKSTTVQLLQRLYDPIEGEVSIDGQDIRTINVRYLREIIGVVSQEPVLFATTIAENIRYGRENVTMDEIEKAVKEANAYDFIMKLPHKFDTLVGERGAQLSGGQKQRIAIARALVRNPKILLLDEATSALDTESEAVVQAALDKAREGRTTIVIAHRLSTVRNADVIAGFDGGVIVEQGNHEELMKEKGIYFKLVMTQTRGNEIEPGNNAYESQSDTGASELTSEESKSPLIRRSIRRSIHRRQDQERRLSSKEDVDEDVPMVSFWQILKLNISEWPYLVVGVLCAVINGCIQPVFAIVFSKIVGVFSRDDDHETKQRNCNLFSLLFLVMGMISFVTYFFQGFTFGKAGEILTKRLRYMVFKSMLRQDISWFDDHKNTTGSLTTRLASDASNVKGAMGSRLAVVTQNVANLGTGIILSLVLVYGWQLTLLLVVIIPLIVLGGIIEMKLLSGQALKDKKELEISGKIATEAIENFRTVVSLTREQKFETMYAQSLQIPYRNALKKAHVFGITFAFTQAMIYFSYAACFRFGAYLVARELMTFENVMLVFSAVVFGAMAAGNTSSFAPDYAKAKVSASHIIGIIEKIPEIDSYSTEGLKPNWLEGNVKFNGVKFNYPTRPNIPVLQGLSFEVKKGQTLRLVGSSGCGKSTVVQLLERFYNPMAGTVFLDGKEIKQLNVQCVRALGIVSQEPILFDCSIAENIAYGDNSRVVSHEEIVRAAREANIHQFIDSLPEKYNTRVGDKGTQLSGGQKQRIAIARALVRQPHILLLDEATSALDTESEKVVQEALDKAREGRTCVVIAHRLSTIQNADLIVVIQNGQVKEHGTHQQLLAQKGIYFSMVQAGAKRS

[4] = Bile flow in bile duct-cannulated rats; assay type: in vivo, rat; conditions: GG918 4 mol kg1 body weight i.v.
Mdr1b P-gp [5] = target: T1, Mdr1b P-gp; assay: In vivo elimination of [14C]doxorubicin into bile; set-up: from tissue; host or cells: liver of male Wistar rats: the liver in the living animal (A10, A11); conditions: GG918 14 mol kg1; 60 min
[6] = target: T4, recombinant rat Mdr1b P-gp (Rattus norvegicus, UniProt P43245); assay: Photoaffinity labelling with [3H]azidopine, membranes of recombinant mdr1b-BV-infected Sf9 cells; assay type: binding; conditions: […] GG918
T4 construct: made in house; host or cells: Sf9 insect cells, recombinant baculovirus (mdr1b-BV)
T4 sequence (P43245 whole entry): as the sequence (P43245 whole entry, the tested form may be a part) above

BSEP = target: T5, BSEP (Rattus norvegicus, UniProt O70127); assay: In vivo elimination of [3H]taurocholate into bile; conditions: GG918 4 mol kg1 body weight
T5 construct: Membrane fractions enriched in the hepatocyte canalicular membrane domain were prepared and characterized from rat and human liver; from tissue; host or cells: liver of male Wistar rats: canalicular membrane vesicles (A8) or the liver in vivo (A13)
T5 sequence (O70127 1-1321): T2 sequence (O70127 1-1321)

MDR1 P-glycoprotein = assay: in vitro; conditions: Wistar (rat), human
[7] = target: T6, conjugate export pump MRP2 (Rattus norvegicus, UniProt Q63120); assay: ATP-dependent [3H]LTC4 transport in rat hepatocyte canalicular membrane vesicles; assay type: biochemical; conditions: LTC4 50 nM; not significantly inhibited up to 20 µM
T6 construct: Membrane fractions enriched in the hepatocyte canalicular membrane domain were prepared and characterized from rat and human liver; from tissue; host or cells: liver of male Wistar rats: canalicular membrane vesicles (A7) or the liver in vivo (A12)

[8] = target: T6, conjugate export pump MRP2; assay: In vivo elimination of N-[3H]acetyl-LTE4 into bile; conditions: GG918 4 mol kg1
Mdr1 P-gp [9] = target: T3, Mdr1 P-gp; assay: ATP-dependent [14C]doxorubicin transport in rat hepatocyte canalicular membrane vesicles; assay type: biochemical; conditions: read-out: half-maximal inhibition of [14C]doxorubicin transport (IC50)
[10] = target: T7, rat P-gp (145 kDa protein) (Rattus norvegicus, UniProt P43245); assay: Photoaffinity labelling with [3H]azidopine, rat canalicular membranes; assay type: binding
T7 construct: Membrane fractions enriched in the hepatocyte canalicular membrane domain were prepared and characterized from rat and human liver; from tissue; host or cells: rat liver canalicular membrane vesicles
T7 sequence (P43245 whole entry, the tested form may be a part): as above

T1 sequence (P43245 whole entry): as the sequence (P43245 whole entry, the tested form may be a part) above

Vmax of ATP-dependent daunorubicin transport (Mdr1b P-gp [1]; Lineweaver-Burk plots, rat canalicular vesicles) [pmol mg1 min1]	suppression of ATP-dependent transport of N-pentyl-[3H]quinidinium (Mdr1 P-gp [3]; 10 nM GG918) [%]	suppression of ATP-dependent transport of N-pentyl-[3H]quinidinium (Mdr1 P-gp [3]; 100 nM GG918) [%]	IC50 (Mdr1 P-gp [3]; rat hepatocyte canalicular membranes, substrate 1 M, read-out: half-maximal inhibition of N-pentyl-[3H]quinidinium transport (IC50)) [nM]	[14C]doxorubicin elimination suppressed to (% of untreated) (Mdr1b P-gp [5]) [%]	reduction of [3H]azidopine incorporation into the Mdr1b protein [6] [%]	IC50 (MDR1 P-glycoprotein) [nM]	Ki (Mdr1b P-gp [1]) [nM]	IC50 (Mdr1b P-gp [1]; IC50 Dau (Figure 7), DAU 20 M, Figure 7 inset) [nM]	IC50 (Mdr1b P-gp [1]; half-maximal inhibition of [3H]daunorubicin transport, [3H]daunorubicin 20 M, 0.5% fetal calf serum) [nM]	manner of inhibition of [3H]daunorubicin transport (Mdr1b P-gp [1]; rat canalicular inside-out vesicles, 30 nM GG918)	IC50 [7] [nM]	inhibition of N-[3H]acetyl-LTE4 secretion [8]	IC50 (Mdr1 P-gp [9]) [nM]	reduction of [3H]azidopine labelling of rat P-gp ([10]; 40 µM GG918) [%]	reduction of [3H]azidopine labelling of rat P-gp ([10]; 10 M GG918) [%]	concentration for potent competition with [3H]azidopine photoaffinity labelling versus concentration for potent inhibition of substrate transport by Mdr1b P-gp ([10]; fold higher)	Compound	IC50 [2] [nM]	bile flow [4]	effect on biliary excretion of [3H]taurocholate (BSEP)
721	–	–	–	–	–	–	–	–	–	–	–	–	–	–	–	–	COc1cccc2c1C(=O)c1c(O)c3c(c(O)c1C2=O)C[C@@](O)(C(C)=O)C[C@@H]3O[C@H]1C[C@H](N)[C@H](O)[C@H](C)O1 [daunorubicin]	–	–	–
–	42	98	8	27	80	8 to 80	35	20	~20	competitive	> 20000	No significant inhibition	80	78	38	at least 100 fold	COc1cc2c(cc1OC)CN(CCc1ccc(NC(=O)c3cccc4c(=O)c5cccc(OC)c5[nH]c34)cc1)CC2 [GG918, N-{4-[2-(1,2,3,4-tetrahydro-6,7-dimethoxy-2-isoquinolinyl)-ethyl]-phenyl}-9,10-dihydro-5-methoxy-9-oxo-4-acridine carboxamide]	~3000	not affected	did not affect
